Experimental data as given in ChEMBL document CHEMBL1143752, “Fatty acyl amides of endogenous tetrahydroisoquinolines are active at the recombinant human TRPV1 receptor” (Bioorg Med Chem, 2007).

Tests used:
Type in all cases: functional, cell-based
[1] = target: Transient receptor potential cation channel subfamily V member 1 (Homo sapiens) (UniProt Q8NER1); assay: Agonist activity at human TRPV1 expressed HEK293 cells assessed as calcium mobilization at 10 uM
[2] = target: Transient receptor potential cation channel subfamily V member 1 (Homo sapiens) (UniProt Q8NER1); assay: Agonist activity at human TRPV1 expressed HEK293 cells assessed as reduction of capsaicin-induced calcium mobilization at 1 uM; set-up: scale not given: the % may be the effect or the level left
[3] = target: Transient receptor potential cation channel subfamily V member 1 (Homo sapiens) (UniProt Q8NER1); assay: Agonist activity at human TRPV1 expressed HEK293 cells assessed as calcium mobilization at 12 uM

Chain of Transient receptor potential cation channel subfamily V member 1 (Homo sapiens) (Q8NER1 whole entry): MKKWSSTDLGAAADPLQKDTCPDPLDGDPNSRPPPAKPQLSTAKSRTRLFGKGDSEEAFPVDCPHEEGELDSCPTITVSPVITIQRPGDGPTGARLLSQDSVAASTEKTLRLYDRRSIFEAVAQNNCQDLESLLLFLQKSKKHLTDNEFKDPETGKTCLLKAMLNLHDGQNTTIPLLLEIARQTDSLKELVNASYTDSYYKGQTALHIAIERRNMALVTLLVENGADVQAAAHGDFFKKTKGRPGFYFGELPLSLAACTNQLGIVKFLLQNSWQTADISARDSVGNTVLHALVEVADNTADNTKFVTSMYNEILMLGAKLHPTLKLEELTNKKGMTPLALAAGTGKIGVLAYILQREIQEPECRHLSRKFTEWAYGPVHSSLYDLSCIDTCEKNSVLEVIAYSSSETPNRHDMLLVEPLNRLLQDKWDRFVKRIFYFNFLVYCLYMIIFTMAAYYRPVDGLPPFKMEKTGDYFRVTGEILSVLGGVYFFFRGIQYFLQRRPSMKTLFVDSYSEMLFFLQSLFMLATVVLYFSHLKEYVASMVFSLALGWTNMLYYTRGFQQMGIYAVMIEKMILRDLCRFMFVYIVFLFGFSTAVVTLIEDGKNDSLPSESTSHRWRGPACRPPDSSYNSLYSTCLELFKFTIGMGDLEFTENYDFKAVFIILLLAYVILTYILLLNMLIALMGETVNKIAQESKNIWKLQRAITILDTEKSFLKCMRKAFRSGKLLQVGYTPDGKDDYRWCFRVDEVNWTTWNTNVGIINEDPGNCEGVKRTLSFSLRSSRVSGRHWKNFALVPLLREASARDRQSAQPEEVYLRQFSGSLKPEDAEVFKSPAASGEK

## CC/C=C/C/C=C/C/C=C/C/C=C/C/C=C/C/C=C/CCC(=O)N1CCc2cc(O)c(O)cc2C1C (configuration not stated)
[1]
  Activity: 25%
[2]
  Activity: 45%

## CC/C=C/C/C=C/C/C=C/C/C=C/C/C=C/C/C=C/CCC(=O)N1CCc2cc(OC)c(O)cc2C1C (configuration not stated)
[2]
  Activity: 5%
[3]
  Activity: 14%

## CCCCC/C=C/C/C=C/C/C=C/C/C=C/CCCC(=O)N1CCc2cc(O)c(O)cc2C1C (configuration not stated)
[1]
  Activity: 55%
[2]
  Activity: 40%

## CCCCC/C=C/C/C=C/CCCCCCCC(=O)N1CCc2cc(OC)c(O)cc2C1C (configuration not stated)
[1]
  Activity: 11%
[2]
  Activity: 25%

## CCCCC/C=C/C/C=C/C/C=C/C/C=C/CCCC(=O)N1CCc2cc(OC)c(O)cc2C1C (configuration not stated)
[1]
  Activity: 18%
[2]
  Activity: 35%

## CCCCC/C=C/C/C=C/CCCCCCCC(=O)N1CCc2cc(O)c(O)cc2C1C (configuration not stated)
[1]
  Activity: 36%
[2]
  Activity: 35%
